As a reminder, the IC50 is the concentration that gives 50% inhibition.

Data set [1] can be described thus: Cytotoxicity against human C918 cells incubated for 72 hrs by CCK8 assay. To be noted: C918, 72 h. The format is functional, cell-based.
Data set [2] is described as follows: Cytotoxicity against human MUM-2B cells incubated for 72 hrs by CCK8 assay. Format: functional, cell-based. On the technique in general: Formazan colour is commonly taken as a measure of viable cells.
Data set [3] concerns A549. The data set is described as follows: Potency index, ratio of cisplatin IC50 to test compound IC50 for antiproliferative activity against human A549 cells. The format is functional.
The subject of data set [4] is MCF7. Briefly: Antiproliferative activity against human MCF7 cells incubated for 48 hrs by MTT assay. Format: functional, cell-based. To be noted: MCF7, 48 h.
Data set [5] concerns MCF7. Briefly: Potency index, ratio of cisplatin IC50 to test compound IC50 for antiproliferative activity against human MCF7 cells. The format is functional.
In data set [6] the test system is SW480. Briefly: Potency index, ratio of cisplatin IC50 to test compound IC50 for antiproliferative activity against human SW480 cells. The format is functional.
Data set [7] deals with HL-60. Briefly: Antiproliferative activity against human HL-60 cells incubated for 48 hrs by MTT assay. Format: functional, cell-based. To be noted: HL-60, 48 h.
For data set [8], the system named is SMMC-7721. Briefly: Potency index, ratio of cisplatin IC50 to test compound IC50 for antiproliferative activity against human SMMC7721 cells. The format is functional.
The subject of data set [9] is SMMC-7721. The data set is described as follows: Antiproliferative activity against human SMMC-7721 cells incubated for 48 hrs by MTT assay. Format: functional, cell-based. To be noted: SMMC-7721, 48 h.
The test system of data set [10] is A549. Briefly: Antiproliferative activity against human A549 cells incubated for 48 hrs by MTT assay. Format: functional, cell-based. To be noted: A549, 48 h.
Data set [11] relates to SW480. The data set is described as follows: Antiproliferative activity against human SW480 cells incubated for 48 hrs by MTT assay. To be noted: SW480, 48 h. The format is functional, cell-based.
The subject of data set [12] is Calu-1. Briefly: Antiproliferative activity against human Calu-1 cells incubated for 24 hrs by MTT assay. Format: functional, cell-based. To be noted: Calu-1, 24 h.
Data set [13] deals with HeLa. The data set is described as follows: Antiproliferative activity against human HeLa cells incubated for 24 hrs by MTT assay. Format: functional, cell-based.
Data set [14] in a line: Selectivity ratio of IC50 for African green monkey Vero cells to IC50 for human A549 cells. Format: toxicity. To be noted: read-out: Ratio IC50.
Data set [15] has as its system L02. Briefly: Cytotoxicity against human L02 cells. Format: cell-based.
Data set [16] concerns A549. Briefly: Antiproliferative activity against human A549 cells incubated for 24 hrs by MTT assay. Format: functional, cell-based. To be noted: A549, 24 h.
A short description of data set [17]: Selectivity ratio of IC50 for human L02 cells to IC50 for human Calu-1 cells. The format is toxicity. To be noted: L02 cells / Calu-1 cells, read-out: Ratio IC50.
Data set [18] in a line: Selectivity ratio of IC50 for African green monkey Vero cells to IC50 for human Calu-1 cells. To be noted: Vero cells / Calu-1 cells, read-out: Ratio IC50. The format is toxicity.
Data set [19] has as its system Vero. Briefly: Cytotoxicity against African green monkey Vero cells. The format is cell-based. To be noted: Chlorocebus sabaeus.
Data set [20] is described as follows: Selectivity ratio of IC50 for African green monkey Vero cells to IC50 for human HeLa cells. Format: toxicity. To be noted: read-out: Ratio IC50.
Data set [21] is described as follows: Selectivity ratio of IC50 for human L02 cells to IC50 for human HeLa cells. The format is toxicity. To be noted: read-out: Ratio IC50.
Data set [22] in a line: Selectivity ratio of IC50 for human L02 cells to IC50 for human A549 cells. Format: toxicity. To be noted: read-out: Ratio IC50.
Data set [23] has as its system HepG2. The data set is described as follows: Antiproliferative activity against human HepG2 cells incubated for 48 hrs by MTT assay. Format: functional, cell-based. To be noted: HepG2, 48 h.
Data set [24] relates to L02. Briefly: Cytotoxicity against human L02 cells incubated for 24 hrs by CCK8 assay. Format: functional, cell-based. To be noted: L02, 24 h.
The nature of data set [25]: Cytotoxicity against PBMC (unknown origin) incubated for 24 hrs by CCK8 assay.
Data set [26] concerns L02. Briefly: Cytotoxicity against human HL7702 cells incubated for 48 hrs by MTT assay. The format is cell-based. To be noted: L02, 48 h.
For data set [27], the system named is MCF7. The data set is described as follows: Antiproliferative activity against human MCF7 cells incubated for 24 hrs by MTT assay. Format: functional, cell-based. To be noted: MCF7, 24 h.
The test system of data set [28] is BGC-823. The data set is described as follows: Antiproliferative activity against human BGC-823 cells incubated for 48 hrs by MTT assay. Format: functional, cell-based. To be noted: BGC-823, 48 h.
Data set [29] has as its system HL-60. Briefly: Potency index, ratio of cisplatin IC50 to test compound IC50 for antiproliferative activity against human HL-60 cells. Format: functional.
Data set [30] is described as follows: Cytotoxicity against human KBV cells by MTT assay. Format: functional, cell-based.

Consider `COc1cc(/C=C/c2ccc(OCCC(=O)O[C@H]3c4cc5c(cc4[C@@H](c4cc(OC)c(OC)c(OC)c4)[C@H]4C(=O)OC[C@@H]43)OCO5)cc2)cc(OC)c1`, for which the IC50 in data set [1] and in [2] was 81 nM in each case.

Regarding `CCCC(=O)O[C@@H]1[C@@H](OC(=O)CCC)[C@@H](O[C@@H]2c3cc4c(cc3[C@@H](c3cc(OC)c(OC)c(OC)c3)[C@H]3C(=O)OC[C@@H]32)OCO4)OC[C@H]1OC(=O)CCC`, the “Ratio IC50” value in [3], in [5], in data set [6] and in [8] was 1.9 each time. Besides, the half-inhibitory concentration (IC50) in data set [4] is greater than 2.9 µM; in data set [7], 0.14 µM; in data set [9], greater than 2.9 µM; in data set [10] it was greater than 2.9 µM; in data set [11], greater than 2.9 µM.

`COc1cc([C@@H]2c3cc4c(cc3[C@H](OC(=O)CCCCC3CCSC(c5ccc(C)cc5)S3)[C@H]3COC(=O)[C@H]23)OCO4)cc(OC)c1OC` (stereo not given in full): the half-maximal inhibitory concentration (IC50) is 2680 nM in data set [12]; 2680 nM in [13]; greater than 93.8 µM in [15]; 2680 nM in data set [16]; greater than 93800 nM in data set [19]. Besides, the selectivity ratio in [14], in data set [17], in data set [18], in data set [20], in data set [21] and in data set [22] was no less than 9.7 each time.

With `COc1cc([C@@H]2c3cc4c(cc3[C@H](O)[C@H]3COC(=O)[C@H]23)OCO4)cc(OC)c1OC` [PODOFILOX], the 50% inhibitory concentration (IC50) was determined as 2680 nM in [12]; 4.31 µM in data set [23]; 2970 nM in [24]; 2130 nM in [13]; 3.16 µM in [15]; 5.02 µM in data set [25]. Further, the half-inhibitory concentration (IC50) in data set [16] is 2130 nM; in data set [26], 4.31 µM; in data set [27], 2130 nM; in data set [19], 1040 nM; in [28], 4.31 µM; in data set [10] it was 4.31 µM.

Take `CCCC(=O)O[C@@H]1[C@@H](OC(=O)CCC)[C@H](OCc2cn([C@@H]3c4cc5c(cc4[C@@H](c4cc(OC)c(O)c(OC)c4)[C@H]4C(=O)OC[C@@H]43)OCO5)nn2)O[C@H](COCc2cn([C@@H]3c4cc5c(cc4[C@@H](c4cc(OC)c(O)c(OC)c4)[C@H]4C(=O)OC[C@@H]43)OCO5)nn2)[C@H]1OC(=O)CCC`: the “Ratio IC50” value in data set [3], in [5], in [6], in data set [29] and in data set [8] was 2.8 throughout. Besides, the IC50 in [4], in data set [7], in [9], in data set [10] and in [11] was 14 µM in each case.

Consider `COc1cc([C@@H]2c3cc4c(cc3[C@@H](n3cc(COC[C@H]5O[C@@H](OCc6cn([C@@H]7c8cc9c(cc8[C@@H](c8cc(OC)c(O)c(OC)c8)[C@H]8C(=O)OC[C@@H]87)OCO9)nn6)[C@H](OC(C)=O)[C@@H](OC(C)=O)[C@@H]5OC(C)=O)nn3)[C@H]3COC(=O)[C@H]23)OCO4)cc(OC)c1O`, for which the “Ratio IC50” value in data set [3], in data set [5], in [6], in data set [29] and in data set [8] was 2.8 throughout. The half-inhibitory concentration (IC50) in [4], in data set [7], in [9], in data set [10] and in data set [11] was 14 µM in each case.

In [30], `CC[C@]1(O)C[C@H]2CN(CCc3c([nH]c4ccccc34)[C@@](C(=O)OC)(c3cc4c(cc3OC)N(C=O)[C@H]3[C@@](O)(C(=O)OC)[C@H](OC(C)=O)[C@]5(CC)C=CCN6CC[C@]43[C@@H]65)C2)C1` [VINCRISTINE] displayed an IC50 of 50.3 µM.

Source of the values: ChEMBL document CHEMBL4818987, “Recent advances of podophyllotoxin/epipodophyllotoxin hybrids in anticancer activity, mode of action, and structure-activity relationship: An update (2010-2020)” (Eur J Med Chem, 2020).
